Laboratory results: article PMC6328008 (Journal of Enzyme Inhibition and Medicinal Chemistry, 2019)
“Also recorded” adds a separate entry of the source.

Assays:
[1] = tested on: Panc1 pancreatic cancer cells; assay: Cancer cell line growth inhibition assay; assay type: cell-based, human; details: for Inhibition of growth of Panc1 cells (in words): 3 days, concentrations up to 10 µM
[2] = tested on: normal mobilised peripheral blood progenitor cells; details: listed as NSAH; cited from earlier work

Compound | Inhibition of growth of Panc1 cells (in words) [1] | further results
COc1ccc(-c2ccsc2)c(/C=N/NC(=O)c2ccccc2O)c1O [TP6, (E)-2-Hydroxy-N'-(2-hydroxy-3-methoxy-6-(thiophen-3-yl)benzylidene)-benzohydrazide] |  | Fold decrease in IC50 over lead compound NSAH (TP8) ([1]; Panc1): > 2 fold
O=C(NNC(=O)c1ccccc1O)c1cccnc1 [TP13, N'-(2-Hydroxybenzoyl)-nicotinohydrazide] | did not inhibit the growth | 
O=C1Nc2ccccc2/C1=N\NC(=O)c1ccccc1O [TP1, (E)-2-Hydroxy-N'-(2-oxoindolin-3-ylidene)benzohydrazide] | did not inhibit the growth | 
Nc1ncnc2c1ncn2-c1ccc(/C=N/NC(=O)c2ccccc2O)cc1 [TP7, (E)-N'-(4–(6-amino-9H-purin-9-yl)benzylidene)-2-hydroxybenzohydrazide] | did not inhibit the growth | 
O=C(N/N=C/c1c(O)ccc2ccccc12)c1ccccc1O [TP8, (E)-2-Hydroxy-N'-((2-hydroxynaphthalen-1-yl)methylene)-benzohydrazide] |  | Toxicity against normal mobilised peripheral blood progenitor cells [2]: much less effective
O=C(N/N=C/c1cccnc1)c1c(O)ccc2ccccc12 [TP12, (E)-2-Hydroxy-N'-(pyridin-3-ylmethylene)-1-naphthohydrazide] | did not inhibit the growth | 
COc1ccc(-c2cnc(-c3ccccc3O)s2)cc1 [TP9, 2–(5-(4-Methoxyphenyl)thiazol-2-yl)-phenol] | did not inhibit the growth; also recorded: ineffective | 
O=C(N/N=C/c1cc(-c2ccsc2)ccc1O)c1ccccc1O [TP3, (E)-2-Hydroxy-N'-(2-hydroxy-5-(thiophen-3-yl)-benzylidene)-benzohydrazide] |  | Fold decrease in potency in cells on removal of the methoxy (TP2, 3 vs TP5, 6) ([1]; Panc1): > 2 fold
O=C(NNC(=O)c1c(O)ccc2ccccc12)c1cccnc1 [TP11, N'-(2-Hydroxy-1-naphthoyl)-nicotinohydrazide] | did not inhibit the growth | 
O=C(N/N=C/c1cc(-c2ccccc2)ccc1O)c1ccccc1O [TP2, (E)-2-Hydroxy-N'-((4-hydroxy-[1,1'-biphenyl]-3-yl)methylene)-benzohydrazide] |  | Fold decrease in potency in cells on removal of the methoxy (TP2, 3 vs TP5, 6) ([1]; Panc1): > 2 fold
